One block for each compound: values may come before it.
Key:
[1] = species on record: Homo sapiens; conditions: Compound concentration 10.0 uM
[2] = biological target: B1 bradykinin receptor (Homo sapiens) (UniProt P46663); conditions: Compound concentration 10.0 uM
[3] = biological target: 5'-AMP-activated protein kinase catalytic subunit alpha-2 (Homo sapiens) (UniProt P54646); assay: Inhibition of AMPKalpha2(h) at 10.0 µM in the Eurofins Kinase panel; conditions: Compound concentration 10.0 uM
[4] = biological target: Calcium/calmodulin-dependent protein kinase type 1B (Homo sapiens) (UniProt Q6P2M8); assay: Inhibition of CaMKIbeta(h) at 10.0 µM in the Eurofins Kinase panel; conditions: Compound concentration 10.0 uM
[5] = biological target: Inhibitor of nuclear factor kappa-B kinase subunit alpha (Homo sapiens) (UniProt O15111); assay: Inhibition of IKKalpha(h) at 10.0 µM in the Eurofins Kinase panel; conditions: Compound concentration 10.0 uM
[6] = biological target: 5-hydroxytryptamine receptor 2A (Homo sapiens) (UniProt P28223); conditions: Compound concentration 10.0 uM
[7] = biological target: Wee1-like protein kinase (Homo sapiens) (UniProt P30291); assay: Inhibition of WEE1(h) at 10.0 µM in the Eurofins Kinase panel; conditions: Compound concentration 10.0 uM
[8] = biological target: Tyrosine-protein kinase JAK2 (Homo sapiens) (UniProt O60674); assay: Inhibition of JAK2(h) at 10.0 µM in the Eurofins Kinase panel; conditions: Compound concentration 10.0 uM
[9] = biological target: Prostaglandin G/H synthase 1 (Homo sapiens) (UniProt P23219); assay: Inhibition of Cyclooxygenase COX-1 at compound concentration of 10.0 uM in the Eurofins-Panlabs enzyme assay (Eurofins_assay_116020); conditions: Compound concentration 10.0 uM
[10] = biological target: Mitogen-activated protein kinase 14 (Homo sapiens) (UniProt Q16539); assay: Inhibition of Protein Serine/Threonine Kinase, MAPK14 (p38α) at 10 µM in the Eurofins-Panlabs enzyme assay (Eurofins_assay_176610); set-up: substrate with concentration; conditions: Compound concentration 10.0 uM
[11] = biological target: Sigma intracellular receptor 2 (Homo sapiens) (UniProt Q5BJF2); assay: Inhibition of Sigma 2 at 10 µM in the Eurofins-Panlabs radioligand binding assay (Eurofins_assay_278200); set-up: ligand concentration 3 nM; conditions: Rattus norvegicus; Compound concentration 10.0 uM
[12] = biological target: 5-hydroxytryptamine receptor 1B (Homo sapiens) (UniProt P28222); assay: Inhibition of Serotonin (5-Hydroxytryptamine) 5-HT1B at 10 µM in the Eurofins-Panlabs radioligand binding assay (Eurofins_assay_271200); conditions: Compound concentration 10.0 uM
[13] = biological target: D(1A) dopamine receptor (Homo sapiens) (UniProt P21728); conditions: Compound concentration 10.0 uM
[14] = biological target: Beta-2 adrenergic receptor (Homo sapiens) (UniProt P07550); conditions: Compound concentration 10.0 uM
[15] = species on record: Homo sapiens; assay: Inhibition of Phosphodiesterase PDE4 at compound concentration of 10.0 uM in the Eurofins-Panlabs enzyme assay (Eurofins_assay_154000); type: protein assay; set-up: substrate with concentration 1.01 uM [3 H]cAMP + cAMP, incubation time 20 min, incubation temperature 25 C; conditions: Compound concentration 10.0 uM
[16] = biological target: hERG (KCNH2) (Homo sapiens, UniProt Q12809); assay: Inhibition of Potassium Channel hERG at 10 µM in the Eurofins-Panlabs radioligand binding assay (Eurofins_assay_265900); set-up: ligand concentration 1.5 nM, non-specific ligand with concentration Astemizole, incubation time 60 min, incubation temperature 25 °C; conditions: HEK-293 cells expressing human recombinant hERG, probe [3H] Astemizole, compound concentration 10 uM
[17] = biological target: T1, 5-hydroxytryptamine receptor 3A (Homo sapiens) (UniProt P46098); assay: Inhibition of Serotonin (5-Hydroxytryptamine) 5-HT3 at 10 µM in the Eurofins-Panlabs radioligand binding assay (Eurofins_assay_271910); set-up: ligand concentration 0.69 nM; conditions: Compound concentration 10.0 uM
T1 sequence (whole entry): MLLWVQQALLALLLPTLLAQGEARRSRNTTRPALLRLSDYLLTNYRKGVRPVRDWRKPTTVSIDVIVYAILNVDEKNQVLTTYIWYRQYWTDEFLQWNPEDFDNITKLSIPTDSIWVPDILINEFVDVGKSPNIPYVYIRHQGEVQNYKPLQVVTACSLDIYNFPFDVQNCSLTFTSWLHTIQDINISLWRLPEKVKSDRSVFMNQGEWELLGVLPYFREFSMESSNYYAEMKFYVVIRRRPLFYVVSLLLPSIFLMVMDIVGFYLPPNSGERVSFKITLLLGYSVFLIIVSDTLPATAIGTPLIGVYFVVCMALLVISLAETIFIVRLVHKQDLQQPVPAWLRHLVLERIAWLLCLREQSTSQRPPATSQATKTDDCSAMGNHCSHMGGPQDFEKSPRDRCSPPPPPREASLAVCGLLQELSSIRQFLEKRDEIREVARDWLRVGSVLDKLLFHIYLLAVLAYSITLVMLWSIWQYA

[18] = biological target: Tyrosine-protein kinase Fyn (Homo sapiens) (UniProt P06241); assay: Inhibition of Protein Tyrosine Kinase, Fyn at 10 µM in the Eurofins-Panlabs enzyme assay (Eurofins_assay_172020); set-up: substrate with concentration; conditions: Compound concentration 10.0 uM
[19] = species on record: Rattus norvegicus; assay: Inhibition of Glutamate, NMDA, Phencyclidine at 10 µM in the Eurofins-Panlabs radioligand binding assay (Eurofins_assay_233000); type: protein-complex assay; conditions: Compound concentration 10.0 uM
[20] = biological target: Cannabinoid receptor 1 (Homo sapiens) (UniProt P21554); conditions: Compound concentration 10.0 uM
[21] = biological target: Melanocortin receptor 4 (Homo sapiens) (UniProt P32245); assay: Inhibition of Melanocortin MC4 at 10 µM in the Eurofins-Panlabs radioligand binding assay (Eurofins_assay_251350); set-up: ligand concentration 0.02 nM; conditions: Compound concentration 10.0 uM
[22] = biological target: 5-hydroxytryptamine receptor 6 (Homo sapiens) (UniProt P50406); assay: Inhibition of Serotonin (5-Hydroxytryptamine) 5-HT6 at 10 µM in the Eurofins-Panlabs radioligand binding assay (Eurofins_assay_272200); conditions: Compound concentration 10.0 uM
[23] = biological target: Cholecystokinin receptor type A (Homo sapiens) (UniProt P32238); assay: Inhibition of Cholecystokinin CCK1 (CCKA) at 10 µM in the Eurofins-Panlabs radioligand binding assay (Eurofins_assay_218020); conditions: Compound concentration 10.0 uM
[24] = species on record: Sus scrofa; assay: Inhibition of ATPase, Na+/K+, Heart at compound concentration of 10.0 uM in the Eurofins-Panlabs enzyme assay (Eurofins_assay_107710); set-up: substrate with concentration; conditions: Compound concentration 10.0 uM
[25] = biological target: GABA-A receptor; anion channel (Rattus norvegicus) (UniProt O09028+P15431+P18506+P18508+P19969+P20236+P23574+P23576+P28471+P28473+P30191+P62813+P63079+P63138+Q91ZM7+Q9ES14); assay: Inhibition of GABAA, Muscimol, Central at 10 µM in the Eurofins-Panlabs radioligand binding assay (Eurofins_assay_226500); type: protein-complex assay; conditions: Compound concentration 10.0 uM
[26] = biological target: Vasoactive intestinal polypeptide receptor 1 (Homo sapiens) (UniProt P32241); assay: Inhibition of Vasoactive Intestinal Peptide VIP1 at 10 µM in the Eurofins-Panlabs radioligand binding assay (Eurofins_assay_287010); conditions: Compound concentration 10.0 uM
[27] = biological target: Tyrosine-protein kinase Lck (Homo sapiens) (UniProt P06239); assay: Inhibition of Protein Tyrosine Kinase, LCK at 10 µM in the Eurofins-Panlabs enzyme assay (Eurofins_assay_176020); conditions: Compound concentration 10.0 uM
[28] = biological target: Serine/threonine-protein kinase BRSK2 (Homo sapiens) (UniProt Q8IWQ3); assay: Inhibition of BrSK2(h) at 10.0 µM in the Eurofins Kinase panel; conditions: Compound concentration 10.0 uM
[29] = biological target: Serine/threonine-protein kinase Nek4 (Homo sapiens) (UniProt P51957); assay: Inhibition of NEK4(h) at 10.0 µM in the Eurofins Kinase panel; conditions: Compound concentration 10.0 uM
Chain of Serine/threonine-protein kinase Nek4 (Homo sapiens) (P51957 whole entry, looked up): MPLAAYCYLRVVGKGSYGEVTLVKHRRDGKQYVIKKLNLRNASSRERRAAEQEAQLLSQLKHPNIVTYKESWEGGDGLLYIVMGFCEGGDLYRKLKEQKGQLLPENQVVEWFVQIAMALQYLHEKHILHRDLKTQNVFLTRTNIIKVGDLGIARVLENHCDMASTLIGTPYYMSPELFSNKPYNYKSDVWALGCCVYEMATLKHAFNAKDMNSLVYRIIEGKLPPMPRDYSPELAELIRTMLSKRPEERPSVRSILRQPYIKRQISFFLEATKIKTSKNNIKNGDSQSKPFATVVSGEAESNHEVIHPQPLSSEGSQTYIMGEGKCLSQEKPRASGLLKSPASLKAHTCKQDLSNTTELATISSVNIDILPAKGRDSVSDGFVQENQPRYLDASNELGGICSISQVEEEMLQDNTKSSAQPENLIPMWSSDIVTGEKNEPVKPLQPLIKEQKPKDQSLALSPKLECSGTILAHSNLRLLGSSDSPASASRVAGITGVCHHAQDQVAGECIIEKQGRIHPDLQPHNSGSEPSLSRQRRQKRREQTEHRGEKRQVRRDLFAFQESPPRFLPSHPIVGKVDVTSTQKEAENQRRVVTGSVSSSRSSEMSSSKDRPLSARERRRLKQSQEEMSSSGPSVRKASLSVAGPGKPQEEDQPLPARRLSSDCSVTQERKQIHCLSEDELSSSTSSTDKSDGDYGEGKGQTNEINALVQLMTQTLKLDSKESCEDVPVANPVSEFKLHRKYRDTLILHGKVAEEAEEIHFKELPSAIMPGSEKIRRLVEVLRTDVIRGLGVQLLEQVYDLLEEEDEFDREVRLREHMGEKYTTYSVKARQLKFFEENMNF

Chain of D(1A) dopamine receptor (Homo sapiens) (P21728 whole entry): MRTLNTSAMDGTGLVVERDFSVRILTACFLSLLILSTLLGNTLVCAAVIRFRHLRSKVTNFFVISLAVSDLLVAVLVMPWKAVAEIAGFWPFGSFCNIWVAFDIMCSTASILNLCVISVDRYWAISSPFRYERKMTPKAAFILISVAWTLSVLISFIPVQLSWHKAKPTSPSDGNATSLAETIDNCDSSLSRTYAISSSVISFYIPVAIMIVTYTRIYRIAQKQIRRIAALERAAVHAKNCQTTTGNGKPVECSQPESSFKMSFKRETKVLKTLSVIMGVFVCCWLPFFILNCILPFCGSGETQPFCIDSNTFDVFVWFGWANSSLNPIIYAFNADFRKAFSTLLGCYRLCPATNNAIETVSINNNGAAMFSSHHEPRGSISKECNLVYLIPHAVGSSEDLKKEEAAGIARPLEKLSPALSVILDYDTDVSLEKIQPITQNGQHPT
Chain of Beta-2 adrenergic receptor (Homo sapiens) (P07550 whole entry, looked up): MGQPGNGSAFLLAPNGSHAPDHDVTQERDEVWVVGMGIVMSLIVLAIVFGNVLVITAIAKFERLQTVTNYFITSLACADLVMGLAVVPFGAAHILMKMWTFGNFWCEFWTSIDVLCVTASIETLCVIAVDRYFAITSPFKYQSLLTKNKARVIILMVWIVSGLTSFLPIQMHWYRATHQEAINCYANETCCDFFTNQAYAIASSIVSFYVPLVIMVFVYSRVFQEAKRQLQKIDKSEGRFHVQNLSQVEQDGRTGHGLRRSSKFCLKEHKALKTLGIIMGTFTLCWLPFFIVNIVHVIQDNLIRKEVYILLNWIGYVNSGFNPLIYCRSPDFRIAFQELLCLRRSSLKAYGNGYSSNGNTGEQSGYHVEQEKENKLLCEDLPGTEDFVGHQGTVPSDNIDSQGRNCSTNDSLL
Chain of Calcium/calmodulin-dependent protein kinase type 1B (Homo sapiens) (Q6P2M8 whole entry): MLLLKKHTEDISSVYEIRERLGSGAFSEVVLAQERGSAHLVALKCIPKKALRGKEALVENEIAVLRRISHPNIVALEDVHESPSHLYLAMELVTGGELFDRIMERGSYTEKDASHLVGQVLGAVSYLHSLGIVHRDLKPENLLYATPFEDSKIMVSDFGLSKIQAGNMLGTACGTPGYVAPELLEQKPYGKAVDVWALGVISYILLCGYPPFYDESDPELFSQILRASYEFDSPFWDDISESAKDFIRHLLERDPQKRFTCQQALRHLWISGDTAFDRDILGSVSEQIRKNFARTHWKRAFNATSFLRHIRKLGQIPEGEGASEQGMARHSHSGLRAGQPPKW
Chain of 5-hydroxytryptamine receptor 6 (Homo sapiens) (P50406 whole entry): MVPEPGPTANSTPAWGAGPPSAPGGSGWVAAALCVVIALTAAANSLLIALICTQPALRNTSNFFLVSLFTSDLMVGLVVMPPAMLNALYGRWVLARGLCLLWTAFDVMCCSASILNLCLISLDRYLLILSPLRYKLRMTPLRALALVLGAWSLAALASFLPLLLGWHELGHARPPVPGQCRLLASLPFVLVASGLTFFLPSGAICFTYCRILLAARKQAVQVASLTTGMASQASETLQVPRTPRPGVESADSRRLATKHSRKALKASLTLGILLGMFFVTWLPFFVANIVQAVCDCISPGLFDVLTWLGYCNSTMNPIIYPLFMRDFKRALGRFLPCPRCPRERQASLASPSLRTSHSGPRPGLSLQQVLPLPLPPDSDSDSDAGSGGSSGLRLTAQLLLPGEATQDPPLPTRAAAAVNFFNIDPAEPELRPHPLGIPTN
Chain of Tyrosine-protein kinase JAK2 (Homo sapiens) (O60674 whole entry): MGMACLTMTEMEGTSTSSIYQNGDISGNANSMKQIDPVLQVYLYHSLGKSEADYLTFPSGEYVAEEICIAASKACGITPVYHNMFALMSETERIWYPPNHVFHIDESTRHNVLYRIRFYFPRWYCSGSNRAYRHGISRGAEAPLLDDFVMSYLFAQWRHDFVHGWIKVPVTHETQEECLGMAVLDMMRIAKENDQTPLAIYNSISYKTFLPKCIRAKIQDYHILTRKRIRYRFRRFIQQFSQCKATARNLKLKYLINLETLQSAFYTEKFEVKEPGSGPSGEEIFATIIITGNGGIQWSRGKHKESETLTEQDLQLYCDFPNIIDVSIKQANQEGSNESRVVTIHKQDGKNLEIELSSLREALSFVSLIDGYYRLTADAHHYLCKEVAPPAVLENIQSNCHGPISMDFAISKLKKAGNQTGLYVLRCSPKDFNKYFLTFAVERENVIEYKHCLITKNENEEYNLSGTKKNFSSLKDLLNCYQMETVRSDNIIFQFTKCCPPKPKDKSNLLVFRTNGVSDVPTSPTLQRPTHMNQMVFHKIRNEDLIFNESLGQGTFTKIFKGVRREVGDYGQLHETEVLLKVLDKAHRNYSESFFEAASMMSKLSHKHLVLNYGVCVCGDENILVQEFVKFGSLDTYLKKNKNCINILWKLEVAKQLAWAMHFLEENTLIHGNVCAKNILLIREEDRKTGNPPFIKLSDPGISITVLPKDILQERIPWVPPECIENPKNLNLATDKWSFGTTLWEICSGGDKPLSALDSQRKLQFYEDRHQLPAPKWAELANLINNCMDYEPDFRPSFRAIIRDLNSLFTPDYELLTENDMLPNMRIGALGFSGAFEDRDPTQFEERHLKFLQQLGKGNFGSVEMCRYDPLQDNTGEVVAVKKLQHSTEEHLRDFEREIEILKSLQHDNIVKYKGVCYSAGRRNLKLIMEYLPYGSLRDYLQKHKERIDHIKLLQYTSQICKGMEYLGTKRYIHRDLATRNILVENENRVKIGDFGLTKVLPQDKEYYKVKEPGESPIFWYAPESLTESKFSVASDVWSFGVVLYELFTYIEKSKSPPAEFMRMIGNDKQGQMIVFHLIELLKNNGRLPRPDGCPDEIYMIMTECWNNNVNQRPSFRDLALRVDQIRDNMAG
Chain of Vasoactive intestinal polypeptide receptor 1 (Homo sapiens) (P32241 whole entry): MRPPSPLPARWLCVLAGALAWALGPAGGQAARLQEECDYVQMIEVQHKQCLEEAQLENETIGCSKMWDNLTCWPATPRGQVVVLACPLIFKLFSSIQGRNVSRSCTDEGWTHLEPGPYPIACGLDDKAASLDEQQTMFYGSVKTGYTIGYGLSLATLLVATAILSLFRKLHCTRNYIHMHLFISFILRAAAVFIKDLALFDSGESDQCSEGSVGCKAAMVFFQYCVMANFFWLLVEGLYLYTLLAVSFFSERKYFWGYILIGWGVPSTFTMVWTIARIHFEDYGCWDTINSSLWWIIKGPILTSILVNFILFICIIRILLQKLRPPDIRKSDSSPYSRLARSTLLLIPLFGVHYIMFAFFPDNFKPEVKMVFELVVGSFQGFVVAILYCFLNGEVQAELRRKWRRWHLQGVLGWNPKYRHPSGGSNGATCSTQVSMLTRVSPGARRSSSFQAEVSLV
Chain of 5'-AMP-activated protein kinase catalytic subunit alpha-2 (Homo sapiens) (P54646 whole entry, looked up): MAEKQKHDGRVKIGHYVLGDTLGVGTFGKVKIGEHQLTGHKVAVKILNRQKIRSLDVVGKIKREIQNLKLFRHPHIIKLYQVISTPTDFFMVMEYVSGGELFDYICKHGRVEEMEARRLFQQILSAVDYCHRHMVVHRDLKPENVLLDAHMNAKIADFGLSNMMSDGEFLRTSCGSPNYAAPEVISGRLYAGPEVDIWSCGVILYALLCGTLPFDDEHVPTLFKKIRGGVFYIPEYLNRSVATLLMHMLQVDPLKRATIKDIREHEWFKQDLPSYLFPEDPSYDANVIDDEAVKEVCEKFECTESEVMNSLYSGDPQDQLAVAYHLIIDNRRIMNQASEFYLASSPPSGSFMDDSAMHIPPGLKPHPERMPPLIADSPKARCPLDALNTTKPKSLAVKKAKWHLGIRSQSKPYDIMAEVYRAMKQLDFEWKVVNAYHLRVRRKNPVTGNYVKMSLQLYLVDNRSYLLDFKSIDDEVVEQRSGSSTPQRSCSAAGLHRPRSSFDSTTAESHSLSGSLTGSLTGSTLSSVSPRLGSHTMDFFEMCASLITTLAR
Chain of Melanocortin receptor 4 (Homo sapiens) (P32245 whole entry): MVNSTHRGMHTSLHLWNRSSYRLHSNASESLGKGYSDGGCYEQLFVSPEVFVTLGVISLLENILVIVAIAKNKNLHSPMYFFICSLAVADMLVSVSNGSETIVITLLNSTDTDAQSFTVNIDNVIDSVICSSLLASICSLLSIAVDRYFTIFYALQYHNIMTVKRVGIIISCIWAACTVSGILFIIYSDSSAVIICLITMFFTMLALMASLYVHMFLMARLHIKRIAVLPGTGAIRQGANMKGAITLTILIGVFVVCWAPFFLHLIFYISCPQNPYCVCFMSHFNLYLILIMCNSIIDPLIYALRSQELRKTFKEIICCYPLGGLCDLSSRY

inhibition [1]: -5%
inhibition [2]: -3%
inhibition [3]: -2.83%
inhibition [4]: -8.98%
inhibition [5]: -2.69%
inhibition [6]: -2%
inhibition [7]: -5.39%
inhibition [8]: -4.95%
Structure (SMILES): O=c1n(Cc2cncn2-c2cccc(Cl)c2)nc(-c2ccc(Cl)cc2)n1C[C@H](O)C(F)(F)F

Structure (SMILES): C[C@H](O)c1nc(Cn2nc(-c3ccc(Cl)cc3)n(C[C@H](O)C(F)(F)F)c2=O)nn1-c1cccc(Cl)c1 [PECAVAPTAN]
inhibition [9]: -3%
inhibition [10]: -1%
inhibition [11]: 5%
inhibition [12]: -5%
inhibition [13]: -6.55%
inhibition [14]: -4.34%
inhibition [15]: -4%
inhibition at 60 min, 10 µM [16]: -3% (not active)
inhibition [17]: -2%
inhibition [18]: -6%
inhibition [19]: 14%
inhibition [20]: 34%
inhibition [21]: 4%
inhibition [22]: 4%
inhibition [23]: 15%
inhibition [24]: 0%
inhibition [25]: -2%
inhibition [26]: 10%
inhibition [27]: -9%
inhibition [28]: -4.83%
inhibition [29]: 13.1%
